Test results as given in patent US12022830B2, “Formulations of metal and ascorbic acid complexes, their obtaining and use” (INTERMAG SP. Z O.O., priority 2017, dated 2024).

How the values were obtained:
[1] = system: Radish (Raphanus sativus) of Ronda type; test: Vanadyl ascorbate in cultivation of radish; format: in vivo; details: foliar twice, 0.004% V, total 20 g V/ha
Protocol: Radish (Raphanus sativus) of Ronda type was cultivated in a plastic tunnel in a peat substrate. Vanadyl ascorbate at a 1:2 molar ratio of V:Asc (VO(C6H7O6)2.2H2O) was applied in the form of foliar spraying twice during the entire cultivation, vanadium concentration in the working liquid was 0.004% V. In two applications, the total vanadium dose per hectare was 20 g V/ha. The experiment was performed in a random block system, combinations were drawn in 4 blocks. There were 20 plants for each combination.
Foliar application of vanadyl ascorbate VO(C6H7O6)2.2H2O has increased the mass of radish root by 12% compared to the control plants. […] Furthermore, in vanadium treated plants, the content of flavonoids responsible for protecting plant cells from oxidative stress, which is caused, among others, by through drought, has increased almost twice as compared to the control.

[2] = system: diseases affecting the plant spikes; test: Vanadyl ascorbate on wheat of Figura type, diseases affecting the plant spikes; format: in vivo; details: initial studies, analogous to the titanium complex
Source text: In the case of diseases attacking spikes, on the control combination, infestation by Cladosporium herbarum at 20%, by Septoria nodorum at 10% and by Gibberella avenacea at 10% were found. On sprayed plants, infestations were 1%, 1% and 0% respectively.

[3] = system: celery (Apium graveolens); test: Vanadyl ascorbate in cultivation of celery; format: in vivo; details: for root mass increase compared to plants from the control object: celery; for Chlorophyll / Dry mass of leaves / Dry mass of root / Flavonoids / Mass of celery leaves / Mass of celery root: sprayed three times
Protocol: Cultivation of celery (Apium graveolens) was carried out in a plastic tunnel in pots with a capacity of 3 l filled with peat substrate. Vanadyl ascorbate at a 1:2 molar ratio of V:Asc (VO(C6H7O6)2.2H2O) was applied three times during the entire cultivation in BBCH phases: 4-16 (4-6 leaves), 19-40 (10 and more leaves) and 42-44 (root development) in the form of fine-droplet spraying. Two vanadium doses of 5 g V/ha (0.001%) and 10 g V/ha (0.002%) were used. The experiment was performed in a random block system, combinations were drawn in 4 blocks. There were 20 celery plants for each combination.
The mass of celery leaves has been increased both by the application of vanadium in the amount of 5 g and 10 g/ha. […] For a smaller dose, root mass has increased by 23%, while for a dose of 10 g V/ha by 11% compared to plants from the control object. A dose of 5 g V/ha positively influenced the quality parameters of celery, the dry mass of leaves, the content of chlorophyll and flavonoids have increased. However, a dose of 10 g V/ha contributed to the increase in dry mass of leaves and to the increase in content of flavonoids. The results of this experiment indicate a biostimulatory effect of low doses of vanadium on the utility yield increase of vegetable plants and its qualitative parameters.

[4] = system: fusarium foot and root rot; test: Fusarium foot and root rot on wheat; format: in vivo; details: wheat of Figura type, initial studies, analogous to the titanium complex
iceberg lettuce = test: Vanadyl ascorbate in cultivation of iceberg lettuce, head mass, chlorophyll, flavonoids, nutrients; format: in vivo, Lactuca sativa; details: foliar twice, total 10 g V/ha
Source text: Iceberg cabbage lettuce (Lactuca sativa) of Rubette type was cultivated in a plastic tunnel in pots with a capacity of 3 l filled with a peat substrate. Titanil ascorbate at a 1:2 molar ratio of Ti: Asc (TiO(C6H7O6)2.2H2O) and liquid titanil ascorbate at a 1.5:1 molar ratio of (obtained in situ—according to the method of patent specification PL 163688 or PL 214628) were applied in a foliar manner twice during the entire cultivation, the concentration of titanium in the working liquid for both formulations was 0.00085% Ti. In two applications, the total titanium dose per hectare was 3.4 g Ti/ha. The experiment was performed in a random block system, combinations were drawn in 4 blocks. There were 20 lettuce plants for each combination.
The experiment was performed analogously to the titanium complex at a 1:2 or 1.5:1 (Example 20) molar ratio of Ti:ascorbic acid. VO(C6H7O6)2.2H2O was used in the form of foliar spraying twice, vanadium concentration in the working liquid was 0.001% V. In two applications, the total micronutrient dose per hectare was 10 g V/ha.
Foliar application of VO(C6H7O6)2.2H2O increased the mass of the lettuce head by 14% compared to the control. Furthermore, vanadium ascorbate at a 1:2 molar ratio of V:Asc increased the chlorophyll content. Also, differences were found in the level of flavonoid accumulation between the control object and the combination treated with VO(C6H7O6)2.2H2O.

[5] = Study of solution stability for a given complex; format: physicochemical; details: complexes in the form of solutions

## O.O.O=C1OC(C(O)CO)C([O-])=C1O.O=C1OC(C(O)CO)C([O-])=C1O.[O]=[V+2] (stereo not drawn) [VO(C6H7O6)2•2H2O, vanadyl ascorbate]
[1]
  Chlorophyll: 19.1 μg/cm^2
  Dry mass of root: 4.8%
  Flavonoids: 0.88 μg/cm^2
  Mass of radish root: 19.5 g
  increase of the content of flavonoids compared to the control: almost twice
  increase of the mass of radish root compared to the control plants: 12%
[2]
  effect on the elimination of symptoms caused by diseases affecting the plant spikes: positive effect
[3]; dose of 5 g V/ha
  root mass increase compared to plants from the control object: 23%
[3]; dose of 10 g V/ha
  root mass increase compared to plants from the control object: 11%
[3]; dose of 5 g V/ha (0.001%)
  Chlorophyll: 35.0 μg/cm^2
  Dry mass of leaves: 8.9%
  Dry mass of root: 2.9%
  Flavonoids: 0.77 μg/cm^2
  Mass of celery leaves: 320.3 g
  Mass of celery root: 90.7 g
[3]; dose of 10 g V/ha (0.002%)
  Chlorophyll: 32.0 μg/cm^2
  Dry mass of leaves: 9.5%
  Dry mass of root: 3.1%
  Flavonoids: 0.72 μg/cm^2
  Mass of celery leaves: 317.3 g
  Mass of celery root: 78.5 g
[4]
  effect on the elimination of symptoms caused by fusarium foot and root rot: positive effect
Iceberg lettuce; iceberg lettuce, 0.001% V
  Chlorophyll: 29.6 μg/cm^2
  Dry mass: 6.85%
  Flavonoids: 0.29 μg/cm^2
  Mass of lettuce head: 78.2 g
  increase of the mass of the lettuce head compared to the control: 14%
Iceberg lettuce; lettuce, g/kg d.c.
  Ca content: 18.17 g/kg
  K content: 21.84 g/kg
  Mg content: 4.92 g/kg
  P content: 3.42 g/kg
  S content: 2.69 g/kg
[5]
  stability of the solution among the complexes: most stable
